Reference: US20040191311A1, “Use of methyltestosterone as a drug for treatment of human papilloma virus infections” (priority 2002, published 2004)
Entries after “also recorded” stand apart in the source; their conditions may differ.

Key:
[1] = system: verruca planae caused by HPV; test: Clinical treatment of verruca planae patients with methyltestosterone tablets; assay type: in vivo, human; details: for outcome at follow-up visit: 8 weeks later
[2] = system: condyloma acuminatum caused by HPV; test: Clinical treatment of condyloma acuminatum patients with methyltestosterone tablets after operation, laser or freezing; assay type: in vivo, human; details: for relapse of lesions: in 6 months
Protocol: The study protocol using methyltestosterone as a treatment for verruca planae and condyloma acuminatum caused by HPV includes:
Some of the patients were the relapsed ones after the treatment by transferor, interferon, and interleukins.
Methyltestosterone is a tablet, manufactured by Southwest Pharmaceutical Company and the Second Pharmaceutical Company of Chengdu, China. The dosage was 5 mg/tablet.
Methyltestosterone was administered orally, 1 tablet/time, three times/day, and 5 days consecutively, followed by 1 tablet/time, two times/day, for additional 5-10 days consecutively.
One of the following would be considered as cure: A) there were no new vegetations at or around the lesion for at least six months after administration of methyltestosterone for 10-15 days following treatment with physical, chemical, and operational therapies. B) the vegetations reappeared in two months after operations and were positive for the acetowhitening test, but regressed for at least 6 months after administration of methyltestosterone for 10-15 days.

[3] = of 96 cases with facial verruca planae
[4] = out of 7 cases with hand and neck verruca planae

With `CC12CCC(=O)C=C1CCC1C2CCC2(C)C1CCC2(C)O` (stereo not drawn) [methyltestosterone] as the molecule, how does the time to cure ([1]; Case 1: facial verruca planae 2 years, 1 tablet twice daily for 3 days) read?
Its time to cure is 2 weeks.

What about the “time until all lesions regressed” value ([1]; Case 2: facial verruca planae 1 year, 1 tablet twice daily for 3 days) of the same molecule?
Its value is 4 weeks.

What about the “time until all lesions regressed” value ([1]; Case 3: facial verruca planae 4 years, 1 tablet twice daily for 3 days) of the same molecule?
The value was 4 weeks.

And the lesions regressed ([1]; Case 4: facial verruca planae 13 years, 1 tablet twice daily for 5 days, in 6 weeks)?
The lesions regressed was 90%.

What about the “time until lesions on the face regressed” value ([1]; Case 5: hand and neck verruca planae 10 years, 1 tablet twice daily for 10 days) of the same molecule?
Its value is 2 months.

And the time to cure ([1]; Case 6: facial verruca planae 3 months, 1 tablet once daily for 5 days plus Vitamin B2, Vitamin B6 and brimstone lotion)?
Its time to cure is 4 weeks.

What about the “outcome at follow-up visit” value ([1]; Case 7: facial verruca planae, 1 tablet twice daily for 5 days) of the same molecule?
The value was “cured”.

What about the “outcome at follow-up visit” value ([1]; Case 8: facial verruca planae one year, 1 tablet once daily for 5 days) of the same molecule?
Its value is “cured”.

And the outcome of lesions ([1]; Case 9: facial verruca planae relapsed after laser, 1 tablet three times daily for 5 days)?
The outcome of lesions was “regressed mostly”.

What about the “time until papules regressed completely” value ([1]; Case 10: flat papules on forehead and blepharons, 1 tablet three times daily for 4 days) of the same molecule?
The value was 3 weeks.

And the non-responsive rate ([1]; facial verruca planae, 96 cases)?
Its non-responsive rate is 2%.

What about the cure rate ([1]; facial verruca planae, 96 cases, 5 mg tablet hypoglossally, two or three times/day, 3-5 days, cure = all facial exanthems regressed) of the same molecule?
The cure rate was 88.5%.

What about the effective rate ([1]; facial verruca planae, 96 cases, effective = 70% of exanthems disappeared) of the same molecule?
Its effective rate is 9.4%.

And the effective rate ([1]; hand and neck verruca planae, 7 cases)?
The effective rate was 86%.

And the cases cured [1, 3]?
The cases cured was 85 cases.

And the cases effective [1, 3]?
The cases effective was 9 cases.

And the “cases non-responsive to the medication” value [1, 3]?
Its value is 2 cases.

And the cases cured [1, 4]?
The cases cured was 1 cases.

And the “cases regressed after 5 weeks following the treatment” value [1, 4]?
The value was 3 cases.

And the cases remaining non-responsive [1, 4]?
The cases remaining non-responsive was 1 cases.

What about the “relapse of condyloma acuminatum” value ([2]; 61 patients, methyltestosterone 10-15 days following operations, follow-up 6 months to 1 year) of the same molecule?
The value was “None of the patients relapsed; also recorded: no relapse case; also recorded: no relapses occurred”.

What about the relapse of lesions ([2]; Case 11: penis, laser, then 1 tablet three times daily 5 days and twice daily 5 days) of the same molecule?
The relapse of lesions was “did not relapse”.

What about the relapse of lesions ([2]; Case 12: anus, CO2 laser, then 1 tablet three times daily 5 days and twice daily 10 days) of the same molecule?
Its relapse of lesions is “did not relapse”.

What about the new vegetations ([2]; Case 13: vulva and anus, CO2 laser, then 1 tablet three times daily 5 days and twice daily 5 days, in 4 weeks) of the same molecule?
The new vegetations was “no new vegetations appearing”.

What about the relapse ([2]; Case 14: anus, CO2 laser, then 1 tablet twice daily for 10 days, in a year) of the same molecule?
Its relapse is “No relapse occurred”.

And the “outcome of wound and vegetations” value ([2]; Case 15: prepuce, CO2 laser, then 1 tablet three times daily for 10 days, wound healed in 4 weeks)?
Its value is “no scars left nor new vegetations growing”.

And the “time until wound healed with negative acetowhitening test” value ([2]; Case 16: after the methyltestosterone treatment)?
Its value is 6 weeks.

And the relapse ([2]; Case 16: relapsed after freezing and interferon, CO2 laser, then 1 tablet three times daily 5 days and twice daily 10 days, in one year)?
The relapse was “no relapse occurred”.

And the “evaluation by Chinese Ministry of Health and WHO criteria for condyloma acuminatum” value ([2]; all condyloma acuminatum cases)?
Its value is “all cases are considered as cure”.

And the “outcome of the two cases relapsed after operation and cytokine (interleukin II) treatment” value ([2]; two relapsed cases, then methyltestosterone treatment)?
Its value is “cured; also recorded: healed the lesions”.
